From ChEMBL document CHEMBL4808176, “Optimization of Truncated Glucagon Peptides to Achieve Selective, High Potency, Full Antagonists” (J Med Chem, 2021)
Calls of active or inactive are those of the source. No cut-off for these calls is given here. Peptide text beside a SMILES is read from it. * marks the point of attachment. Carboxymethyl = O=C(O)C*; CH2CH2COOH = O=C(O)CC*

Legend:
Glucagon receptor [1] = target: T1, Glucagon receptor (Homo sapiens, UniProt P47871); assay: Partial antagonist activity at human GCGR expressed in HEK293 cells assessed as inhibition of glucogon-induced cAMP production; format: functional, cell-based; details: filed as antagonist
Glucagon receptor [2] = target: T1, Glucagon receptor; assay: Antagonist activity at human GCGR expressed in HEK293 cells assessed as inhibition of glucogon-induced cAMP production; format: functional, cell-based
Glucagon receptor [3] = target: T1, Glucagon receptor; assay: Displacement of 125I-glucagon from human GCGR expressed in HEK293 cells membranes incubated for 6 hrs by liquid scintillation counting method; format: cell membranes, Membrane

T1 sequence (P47871 whole entry): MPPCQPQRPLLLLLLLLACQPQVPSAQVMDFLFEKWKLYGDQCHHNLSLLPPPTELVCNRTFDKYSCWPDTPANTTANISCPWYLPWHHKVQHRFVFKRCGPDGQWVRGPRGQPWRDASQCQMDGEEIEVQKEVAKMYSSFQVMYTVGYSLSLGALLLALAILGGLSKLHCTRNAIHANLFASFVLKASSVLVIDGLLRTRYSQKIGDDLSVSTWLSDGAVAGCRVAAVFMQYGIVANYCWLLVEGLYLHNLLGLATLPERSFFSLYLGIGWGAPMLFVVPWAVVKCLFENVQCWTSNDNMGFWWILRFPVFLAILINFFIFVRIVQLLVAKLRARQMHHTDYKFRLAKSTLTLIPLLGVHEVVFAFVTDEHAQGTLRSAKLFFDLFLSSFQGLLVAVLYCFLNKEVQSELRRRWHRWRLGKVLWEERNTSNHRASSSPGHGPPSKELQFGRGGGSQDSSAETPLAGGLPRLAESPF

Row | Activity (Glucagon receptor [1]) | IC50 (Glucagon receptor [2]) | IC50 (Glucagon receptor [3]) | Molecule
1 | Active |  |  | CSCC[C@H](NC(=O)[C@H](CC(C)C)NC(=O)[C@H](Cc1c[nH]c2ccccc12)NC(=O)[C@H](CCC(N)=O)NC(=O)[C@@H](NC(=O)[C@H](Cc1ccccc1)NC(=O)[C@H](CC(=O)O)NC(=O)[C@H](CCC(N)=O)NC(=O)[C@H](C)NC(=O)[C@H](CCCNC(=N)N)NC(=O)[C@H](CCCNC(=N)N)NC(=O)[C@H](CO)NC(=O)[C@H](CC(=O)O)NC(=O)[C@H](CC(C)C)NC(=O)[C@H](Cc1ccc(O)cc1)NC(=O)[C@H](CCCCN)NC(=O)[C@H](CO)NC(=O)[C@H](Cc1ccc(O)cc1)NC(=O)CN(CCC(=O)O)C(=O)[C@H](CO)NC(=O)[C@@H](NC(=O)[C@H](Cc1ccccc1)NC(=O)[C@@H](NC(=O)CNC(=O)[C@H](CCC(N)=O)NC(=O)[C@@H](N)CO)[C@@H](C)O)[C@@H](C)O)C(C)C)C(=O)N[C@@H](CC(N)=O)C(=O)N[C@H](C(N)=O)[C@@H](C)O
2 | Active |  |  | CSCC[C@H](NC(=O)[C@H](CC(C)C)NC(=O)[C@H](Cc1c[nH]c2ccccc12)NC(=O)[C@H](CCC(N)=O)NC(=O)[C@@H](NC(=O)[C@H](Cc1ccccc1)NC(=O)[C@H](CC(=O)O)NC(=O)[C@H](CCC(N)=O)NC(=O)[C@H](C)NC(=O)[C@H](CCCNC(=N)N)NC(=O)[C@H](CCCNC(=N)N)NC(=O)[C@H](CO)NC(=O)[C@H](CC(=O)O)NC(=O)[C@H](CC(C)C)NC(=O)[C@H](Cc1ccc(O)cc1)NC(=O)[C@H](CCCCN)NC(=O)[C@H](CO)NC(=O)[C@H](Cc1ccc(O)cc1)NC(=O)[C@H](CSCC(=O)O)NC(=O)[C@H](CO)NC(=O)[C@@H](NC(=O)[C@H](Cc1ccccc1)NC(=O)[C@@H](NC(=O)CNC(=O)[C@H](CCC(N)=O)NC(=O)[C@@H](N)CO)[C@@H](C)O)[C@@H](C)O)C(C)C)C(=O)N[C@@H](CC(N)=O)C(=O)N[C@H](C(N)=O)[C@@H](C)O
3 |  | 81.8 nM |  | CSCC[C@H](NC(=O)[C@H](CC(C)C)NC(=O)[C@H](Cc1c[nH]c2ccccc12)NC(=O)[C@H](CCC(N)=O)NC(=O)[C@@H](NC(=O)[C@H](Cc1ccccc1)NC(=O)[C@H](CC(=O)O)NC(=O)[C@H](CCC(N)=O)NC(=O)[C@H](C)NC(=O)[C@H](CCCNC(=N)N)NC(=O)[C@H](CCCNC(=N)N)NC(=O)[C@H](CO)NC(=O)[C@H](CC(=O)O)NC(=O)[C@H](CC(C)C)NC(=O)[C@H](Cc1ccc(O)cc1)NC(=O)[C@H](CCCCN)NC(=O)[C@H](CO)NC(=O)[C@H](Cc1ccc(O)cc1)NC(=O)[C@H](CSCCC(=O)O)NC(=O)[C@H](CO)NC(=O)[C@@H](NC(=O)[C@@H](N)Cc1ccccc1)[C@@H](C)O)C(C)C)C(=O)N[C@@H](CC(N)=O)C(=O)N[C@H](C(N)=O)[C@@H](C)O (H-FTSC(CH2CH2COOH)YSKYLDSRRAQDFVQWLMNT-NH2)
4 |  | 71.4 nM |  | CSCC[C@H](NC(=O)[C@H](CC(C)C)NC(=O)[C@H](Cc1c[nH]c2ccccc12)NC(=O)[C@H](CCC(N)=O)NC(=O)[C@@H](NC(=O)[C@H](Cc1ccccc1)NC(=O)[C@H](CC(=O)O)NC(=O)[C@H](CCC(N)=O)NC(=O)[C@H](C)NC(=O)[C@H](CCCNC(=N)N)NC(=O)[C@H](CCCNC(=N)N)NC(=O)[C@H](CO)NC(=O)[C@H](CC(=O)O)NC(=O)[C@H](CC(C)C)NC(=O)[C@H](Cc1ccc(O)cc1)NC(=O)[C@H](CCCCN)NC(=O)[C@H](CO)NC(=O)[C@H](Cc1ccc(O)cc1)NC(=O)[C@H](CSCC(=O)O)NC(=O)[C@H](CO)NC(=O)[C@@H](NC(=O)[C@@H](N)Cc1ccccc1)[C@@H](C)O)C(C)C)C(=O)N[C@@H](CC(N)=O)C(=O)N[C@H](C(N)=O)[C@@H](C)O (H-FTSC(Carboxymethyl)YSKYLDSRRAQDFVQWLMNT-NH2)
5 |  | 192 nM | 36.7 nM | CSCC[C@H](NC(=O)[C@H](CC(C)C)NC(=O)[C@H](Cc1c[nH]c2ccccc12)NC(=O)[C@H](CCC(N)=O)NC(=O)[C@@H](NC(=O)[C@H](Cc1ccccc1)NC(=O)[C@H](CC(=O)O)NC(=O)[C@H](CCC(N)=O)NC(=O)[C@H](C)NC(=O)[C@H](CCCNC(=N)N)NC(=O)[C@H](CCCNC(=N)N)NC(=O)[C@H](CO)NC(=O)[C@H](CC(=O)O)NC(=O)[C@H](CC(C)C)NC(=O)[C@H](Cc1ccc(O)cc1)NC(=O)[C@H](CCCCN)NC(=O)[C@H](CO)NC(=O)[C@H](Cc1ccc(O)cc1)NC(=O)[C@H](CCC(=O)O)NC(=O)[C@H](CO)NC(=O)[C@@H](NC(=O)[C@@H](N)Cc1ccc(F)c(F)c1)[C@@H](C)O)C(C)C)C(=O)N[C@@H](CC(N)=O)C(=O)N[C@H](C(N)=O)[C@@H](C)O (HELM PEPTIDE1{[N[C@@H](Cc1ccc(F)c(F)c1)C(=O)[*:2]].T.S.E.Y.S.K.Y.L.D.S.R.R.A.Q.D.F.V.Q.W.L.M.N.T.[am]}$$$$V2.0)
6 |  | 130 nM | 37.1 nM | Ac-FTSEYSKYLDSRRAQDFVQWLMNT-NH2
7 |  | 275 nM |  | H-GTFTSEYSKYLDSRRAQDFVQWLMNT-NH2

The remaining lines, values behind:

Row | Molecule | Activity (Glucagon receptor [1]) | IC50 (Glucagon receptor [2]) | IC50 (Glucagon receptor [3])
8 | CSCC[C@H](NC(=O)[C@H](CC(C)C)NC(=O)[C@H](Cc1c[nH]c2ccccc12)NC(=O)[C@H](CCC(N)=O)NC(=O)[C@@H](NC(=O)[C@H](Cc1ccccc1)NC(=O)[C@H](CC(=O)O)NC(=O)[C@H](CCC(N)=O)NC(=O)[C@H](C)NC(=O)[C@H](CCCNC(=N)N)NC(=O)[C@H](CCCNC(=N)N)NC(=O)[C@H](CO)NC(=O)[C@H](CC(=O)O)NC(=O)[C@H](CC(C)C)NC(=O)[C@H](Cc1ccc(O)cc1)NC(=O)[C@H](CCCCN)NC(=O)[C@H](CO)NC(=O)[C@H](Cc1ccc(O)cc1)NC(=O)CN(CCCC(=O)O)C(=O)[C@H](CO)NC(=O)[C@@H](NC(=O)[C@H](Cc1ccccc1)NC(=O)[C@@H](NC(=O)CNC(=O)[C@H](CCC(N)=O)NC(=O)[C@@H](N)CO)[C@@H](C)O)[C@@H](C)O)C(C)C)C(=O)N[C@@H](CC(N)=O)C(=O)N[C@H](C(N)=O)[C@@H](C)O | Active |  | 
9 | CSCC[C@H](NC(=O)[C@H](CC(C)C)NC(=O)[C@H](Cc1c[nH]c2ccccc12)NC(=O)[C@H](CCC(N)=O)NC(=O)[C@@H](NC(=O)[C@H](Cc1ccccc1)NC(=O)[C@H](CC(=O)O)NC(=O)[C@H](CCC(N)=O)NC(=O)[C@H](C)NC(=O)[C@H](CCCNC(=N)N)NC(=O)[C@H](CCCNC(=N)N)NC(=O)[C@H](CO)NC(=O)[C@H](CC(=O)O)NC(=O)[C@H](CC(C)C)NC(=O)[C@H](Cc1ccc(O)cc1)NC(=O)[C@H](CCCCN)NC(=O)[C@H](CO)NC(=O)[C@H](Cc1ccc(O)cc1)NC(=O)C[C@H](CCC(=O)O)NC(=O)[C@H](CO)NC(=O)[C@@H](NC(=O)[C@H](Cc1ccccc1)NC(=O)[C@@H](NC(=O)CNC(=O)[C@H](CCC(N)=O)NC(=O)[C@@H](N)CO)[C@@H](C)O)[C@@H](C)O)C(C)C)C(=O)N[C@@H](CC(N)=O)C(=O)N[C@H](C(N)=O)[C@@H](C)O | Active |  | 
10 | CSCC[C@H](NC(=O)[C@H](CC(C)C)NC(=O)[C@H](Cc1c[nH]c2ccccc12)NC(=O)[C@H](CCC(N)=O)NC(=O)[C@@H](NC(=O)[C@H](Cc1ccccc1)NC(=O)[C@H](CC(=O)O)NC(=O)[C@H](CCC(N)=O)NC(=O)[C@H](C)NC(=O)[C@H](CCCNC(=N)N)NC(=O)[C@H](CCCNC(=N)N)NC(=O)[C@H](CO)NC(=O)[C@H](CC(=O)O)NC(=O)[C@H](CC(C)C)NC(=O)[C@H](Cc1ccc(O)cc1)NC(=O)[C@H](CCCCN)NC(=O)[C@H](CO)NC(=O)[C@H](Cc1ccc(O)cc1)NC(=O)[C@H](CCCC(=O)O)NC(=O)[C@H](CO)NC(=O)[C@@H](NC(=O)[C@H](Cc1ccccc1)NC(=O)[C@@H](NC(=O)CNC(=O)[C@H](CCC(N)=O)NC(=O)[C@@H](N)CO)[C@@H](C)O)[C@@H](C)O)C(C)C)C(=O)N[C@@H](CC(N)=O)C(=O)N[C@H](C(N)=O)[C@@H](C)O | Active |  | 
11 | CSCC[C@H](NC(=O)[C@H](CC(C)C)NC(=O)[C@H](Cc1c[nH]c2ccccc12)NC(=O)[C@H](CCC(N)=O)NC(=O)[C@@H](NC(=O)[C@H](Cc1ccccc1)NC(=O)[C@H](CC(=O)O)NC(=O)[C@H](CCC(N)=O)NC(=O)[C@H](C)NC(=O)[C@H](CCCNC(=N)N)NC(=O)[C@H](CCCNC(=N)N)NC(=O)[C@H](CO)NC(=O)[C@H](CC(=O)O)NC(=O)[C@H](CC(C)C)NC(=O)[C@H](Cc1ccc(O)cc1)NC(=O)[C@H](CCCCN)NC(=O)[C@H](CO)NC(=O)[C@H](Cc1ccc(O)cc1)NC(=O)[C@H](CSCCC(=O)O)NC(=O)[C@H](CO)NC(=O)[C@@H](NC(=O)[C@H](Cc1ccccc1)NC(=O)[C@@H](NC(=O)CNC(=O)[C@H](CCC(N)=O)NC(=O)[C@@H](N)CO)[C@@H](C)O)[C@@H](C)O)C(C)C)C(=O)N[C@@H](CC(N)=O)C(=O)N[C@H](C(N)=O)[C@@H](C)O | Active |  | 
12 | CSCC[C@H](NC(=O)[C@H](CC(C)C)NC(=O)[C@H](Cc1c[nH]c2ccccc12)NC(=O)[C@H](CCC(N)=O)NC(=O)[C@@H](NC(=O)[C@H](Cc1ccccc1)NC(=O)[C@H](CC(=O)O)NC(=O)[C@H](CCC(N)=O)NC(=O)[C@H](C)NC(=O)[C@H](CCCNC(=N)N)NC(=O)[C@H](CCCNC(=N)N)NC(=O)[C@H](CO)NC(=O)[C@H](CC(=O)O)NC(=O)[C@H](CC(C)C)NC(=O)[C@H](Cc1ccc(O)cc1)NC(=O)[C@H](CCCCN)NC(=O)[C@H](CO)NC(=O)[C@H](Cc1ccc(O)cc1)NC(=O)[C@H](CCC(=O)O)NC(=O)[C@H](CO)NC(=O)[C@@H](NC(=O)C(C)Cc1ccccc1)[C@@H](C)O)C(C)C)C(=O)N[C@@H](CC(N)=O)C(=O)N[C@H](C(N)=O)[C@@H](C)O (some centres not stated) (HELM PEPTIDE1{[CC(Cc1ccccc1)C(=O)[*:2]].T.S.E.Y.S.K.Y.L.D.S.R.R.A.Q.D.F.V.Q.W.L.M.N.T.[am]}$$$$V2.0) |  | 47.7 nM | 114 nM
13 | CSCC[C@H](NC(=O)[C@H](CC(C)C)NC(=O)[C@H](Cc1c[nH]c2ccccc12)NC(=O)[C@H](CCC(N)=O)NC(=O)[C@@H](NC(=O)[C@H](Cc1ccccc1)NC(=O)[C@H](CC(=O)O)NC(=O)[C@H](CCC(N)=O)NC(=O)[C@H](C)NC(=O)[C@H](CCCNC(=N)N)NC(=O)[C@H](CCCNC(=N)N)NC(=O)[C@H](CO)NC(=O)[C@H](CC(=O)O)NC(=O)[C@H](CC(C)C)NC(=O)[C@H](Cc1ccc(O)cc1)NC(=O)[C@H](CCCCN)NC(=O)[C@H](CO)NC(=O)[C@H](Cc1ccc(O)cc1)NC(=O)[C@H](CCC(=O)O)NC(=O)[C@H](CO)NC(=O)[C@@H](NC(=O)[C@@H](N)Cc1ccc2ccccc2c1)[C@@H](C)O)C(C)C)C(=O)N[C@@H](CC(N)=O)C(=O)N[C@H](C(N)=O)[C@@H](C)O (HELM PEPTIDE1{[N[C@@H](Cc1ccc2ccccc2c1)C(=O)[*:2]].T.S.E.Y.S.K.Y.L.D.S.R.R.A.Q.D.F.V.Q.W.L.M.N.T.[am]}$$$$V2.0) |  | 44.1 nM | 95.2 nM
